This is an account of results in patent publication US20240173320A1, “METHODS OF USING EHMT2 INHIBITORS IN IMMUNOTHERAPIES” (Epizyme, Inc., priority 2017, published 2024).

In experiment [1] the test system is naive CD4 T cells isolated from human PBMCs. The experiment can be described thus: T regulatory (Treg) cell polarization of naive CD4 T cells, flow cytometry for CD25 and Foxp3. Format: cell-based. Particulars: for Treg polarization: naive CD4 T cells from healthy donor PBMCs, six days, Foxp3 and CD25 by flow cytometry (Example 3, FIGS. 3, 4A-4B). Here is the method: (§1) To evaluate the effects of Compounds on T regulatory (Treg) and Th17 cell polarization, naive CD4 T cells were isolated from human peripheral blood mononuclear cells (PBMCs) using magnetic bead separation and cultured with or without compound in the presence of Treg or Th17 polarizing cytokines. For Treg polarization, naive cells were cultured for five days with anti-CD3, anti-CD28, TL-2 and TGFβ. After five days, the cells were then evaluated for CD25 and Foxp3 expression by flow cytometry. For Th17 polarization, naive cells were cultured for 10-11 days with anti-CD3, anti-CD28, […], IL-6, IL-23, TGFβ, anti-IFNγ antibody and anti-IL-4 antibody. After 10-11 days cells were stimulated and then evaluated for IL-17 and IFNγ by flow cytometry.
To evaluate the effects of Compound 571 on Treg cell polarization, naive cells were isolated from human peripheral blood mononuclear cells (PBMCs), stimulated with coated CD3 antibody and soluble CD28 antibody, and cultured with or without compound in the presence of Treg polarizing cytokines for five days, as described in [0601]. Compound was replenished at either day three or day four.
(§2) Naive CD4 T cells were isolated from healthy donor PBMCs using magnetic bead separation and were incubated for six days with cytokine cocktail to promote polarization to T regulatory cells, as described in [0601]. Cells were simultaneously treated with various concentrations of G9a inhibitors, with compound replenishment occurring at either day three or day four. Polarization to T regulatory cells was assessed by flow cytometry using Foxp3 and CD25. Methyl mark (H3K9me2) was also assessed by flow cytometry.

Experiment [2] deals with H3K9me2. The experiment can be described thus: Methyl mark (H3K9me2) by flow cytometry under Treg polarizing conditions. Format: cell-based, human. The note with it: naive CD4 T cells from healthy donor PBMCs, six days, flow cytometry (Example 3, FIGS. 3, 4A-4B). Here is the method:
as §2
On the technique in general: Flow cytometry measures light scatter and fluorescence of single cells or particles in a stream.

Experiment [3] has as its system H3K9me2. The experiment can be described thus: Methyl mark (H3K9me2) by flow cytometry under Th17 polarizing conditions. Format: cell-based, human. The note with it: naive CD4 T cells from healthy donor PBMCs, flow cytometry (Example 4, FIGS. 5, 6A-6B). Here is the method:
(§3) Naive CD4 T cells were isolated from healthy donor PBMCs using magnetic bead separation and were incubated with cytokine cocktail to promote polarization to Th17 cells, as described in [0601]. Cells were simultaneously treated with various concentrations of G9a inhibitors, with compound replenishment occurring at day three or four. Polarization to Th17 cells was assessed by flow cytometry using IL-17A and IFNy. Methyl mark (H3K9me2) was also assessed by flow cytometry.

The subject of experiment [4] is naive CD4 T cells isolated from human PBMCs. Put plainly: Th17 cell polarization of naive CD4 T cells, flow cytometry for IL-17 and IFNγ. It is filed as cell-based. The note with it: for percentage of polarized Th17 cells: naive cells from human PBMCs, Th17 polarizing cytokines, 11 days, IL-17 and IFNγ by flow cytometry (Example 2, FIGS. 1B, 2). Here is the method:
as §1
To evaluate the effects of Compounds 205 and 571 on Th17 cell polarization, naive cells were isolated from human peripheral blood mononuclear cells (PBMCs), stimulated with coated CD3 antibody and soluble CD28 antibody, and cultured with or without compound in the presence of Th17 polarizing cytokines for 11 days as described in [0601]. Compound was replenished at either day three or day four. After 11 days of treatment, cells were stimulated with PMA, ionomycin, brefeldin A and monensin, and then evaluated for IL-17 and IFNγ by flow cytometry.
as §3

Each structure is given as a SMILES string. “Also recorded” adds a separate entry of the source.

Take `CNC1=Nc2cc(C#CCN3CCCCC3)c(OC)cc2C12CCC2` [Compound A75]: the Treg polarization result in experiment [1] is “increased”. For the same compound, the “H3K9me2 (methyl mark) under Treg polarization” value with H3K9me2 [2] is on record as “decreased”. Besides, the “H3K9me2 (methyl mark) under Th17 polarization” value in the experiment on H3K9me2 [3] was “decreased”.

`CNc1cc(C)nc(Nc2ccc(OC)c(OCCCN3CCCC3)c2)n1` [Compound 205]: the Treg polarization result in experiment [1] is listed as “increased”. Also, the “percentage of polarized Th17 cells” value in experiment [4] was “dose-dependent increase”. The “H3K9me2 (methyl mark) under Treg polarization” value in the experiment on H3K9me2 [2] is given as “decreased”. In the experiment with H3K9me2 [3], the “H3K9me2 (methyl mark) under Th17 polarization” value is on record as “decreased”.

For `CCN1CC[C@@H](COc2cc(Nc3nc(C)cc(NC)n3)ccc2OC)C1` [Compound 571], the “polarized Treg cells” value in experiment [1] (naive cells from human PBMCs, Treg polarizing cytokines, five days (Example 2, FIG. 1A)) is “anin polarized Treg cells”. Also, the “percentage of polarized Th17 cells” value in experiment [4] is “dose-dependent increase”.

For `CNCc1cnn(-c2cc(Nc3nc(C)cc(NC)n3)ccc2OC)c1` [Compound D6], in experiment [1], the Treg polarization result is “dose-dependent increase; also recorded: increased”. Besides, in experiment [4] (naive CD4 T cells from healthy donor PBMCs, IL-17A and IFNγ by flow cytometry (Example 4, FIG. 5)), the Th17 polarization entry was “dose-dependent increase”. In addition, the “H3K9me2 (methyl mark) under Treg polarization” value in the experiment with H3K9me2 [2] is given as “dose-dependent decrease; also recorded: decreased”. For the same compound, in the experiment with H3K9me2 [3], the “H3K9me2 (methyl mark) under Th17 polarization” value is “dose-dependent decrease; also recorded: decreased”.
